Data on two compounds can be found in PMC6138237, “Machine intelligence decrypts β-lapachone as an allosteric 5-lipoxygenase inhibitor” (Chemical Science, 2018).

Type in all cases: biochemical
One assay addresses T1, EphB4 (Homo sapiens, UniProt P54760).
T1 sequence (P54760 16-987): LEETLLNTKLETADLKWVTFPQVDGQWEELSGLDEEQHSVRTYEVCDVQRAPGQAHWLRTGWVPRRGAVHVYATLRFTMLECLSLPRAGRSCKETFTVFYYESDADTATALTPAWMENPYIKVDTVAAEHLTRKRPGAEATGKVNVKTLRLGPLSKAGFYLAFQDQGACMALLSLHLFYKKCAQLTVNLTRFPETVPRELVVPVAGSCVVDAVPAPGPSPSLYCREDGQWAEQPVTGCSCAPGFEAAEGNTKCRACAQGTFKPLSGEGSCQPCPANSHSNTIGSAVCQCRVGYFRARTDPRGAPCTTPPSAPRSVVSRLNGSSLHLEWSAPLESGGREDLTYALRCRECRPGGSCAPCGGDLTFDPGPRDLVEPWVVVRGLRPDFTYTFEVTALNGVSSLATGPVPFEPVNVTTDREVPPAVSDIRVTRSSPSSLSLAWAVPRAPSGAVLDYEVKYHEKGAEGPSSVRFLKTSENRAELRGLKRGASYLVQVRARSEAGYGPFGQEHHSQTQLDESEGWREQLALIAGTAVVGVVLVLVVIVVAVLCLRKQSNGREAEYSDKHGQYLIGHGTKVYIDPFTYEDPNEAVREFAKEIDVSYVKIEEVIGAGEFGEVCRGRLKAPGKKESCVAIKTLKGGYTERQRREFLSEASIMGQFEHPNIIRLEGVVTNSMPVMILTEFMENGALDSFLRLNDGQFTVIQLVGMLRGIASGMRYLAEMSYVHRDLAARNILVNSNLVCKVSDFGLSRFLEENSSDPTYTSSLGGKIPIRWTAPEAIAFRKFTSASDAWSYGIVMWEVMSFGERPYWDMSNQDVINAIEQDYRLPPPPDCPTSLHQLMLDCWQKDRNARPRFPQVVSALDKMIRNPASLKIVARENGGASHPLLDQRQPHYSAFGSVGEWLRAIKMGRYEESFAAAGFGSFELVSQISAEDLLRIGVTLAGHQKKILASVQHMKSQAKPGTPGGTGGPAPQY
As to the kind of experiment: ExpresS Diversity Kinase Profile, Cerep (LANCE): EphB4. For orientation: TR-FRET usually uses a lanthanide donor and a delayed reading to cut background.

A further assay addresses RAF-1 (Homo sapiens, UniProt P04049). As to the kind of experiment: ExpresS Diversity Kinase Profile, Cerep (LANCE): RAF-1. The conditions noted are these: for inhibition at 150 µM: RAF-1.
The target of the next assay is T2, CHK1 (Homo sapiens, UniProt O14757).
T2 sequence (O14757 1-476): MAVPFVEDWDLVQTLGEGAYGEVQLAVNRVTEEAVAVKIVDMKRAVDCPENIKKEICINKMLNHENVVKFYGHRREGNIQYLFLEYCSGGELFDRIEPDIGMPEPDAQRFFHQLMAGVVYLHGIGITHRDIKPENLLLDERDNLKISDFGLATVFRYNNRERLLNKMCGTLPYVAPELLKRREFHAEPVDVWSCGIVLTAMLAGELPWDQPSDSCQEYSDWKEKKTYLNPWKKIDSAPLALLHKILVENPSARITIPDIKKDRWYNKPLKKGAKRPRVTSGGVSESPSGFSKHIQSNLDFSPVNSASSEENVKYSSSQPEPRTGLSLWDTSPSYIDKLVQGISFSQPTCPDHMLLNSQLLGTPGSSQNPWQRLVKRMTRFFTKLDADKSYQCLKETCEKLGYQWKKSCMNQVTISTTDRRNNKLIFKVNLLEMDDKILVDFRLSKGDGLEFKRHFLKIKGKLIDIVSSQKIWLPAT
As to the kind of experiment: ExpresS Diversity Kinase Profile, Cerep (LANCE): CHK1.

The target in another assay is Akt1/PKBα (Homo sapiens, UniProt P31749). Description: ExpresS Diversity Kinase Profile, Cerep (LANCE): Akt1/PKBα. The settings on record: for inhibition at 150 µM: Akt1/PKBα, Flag: Interference.
A further assay addresses T3, TAOK2 (Homo sapiens, UniProt Q9UL54).
T3 sequence (Q9UL54 1-1235): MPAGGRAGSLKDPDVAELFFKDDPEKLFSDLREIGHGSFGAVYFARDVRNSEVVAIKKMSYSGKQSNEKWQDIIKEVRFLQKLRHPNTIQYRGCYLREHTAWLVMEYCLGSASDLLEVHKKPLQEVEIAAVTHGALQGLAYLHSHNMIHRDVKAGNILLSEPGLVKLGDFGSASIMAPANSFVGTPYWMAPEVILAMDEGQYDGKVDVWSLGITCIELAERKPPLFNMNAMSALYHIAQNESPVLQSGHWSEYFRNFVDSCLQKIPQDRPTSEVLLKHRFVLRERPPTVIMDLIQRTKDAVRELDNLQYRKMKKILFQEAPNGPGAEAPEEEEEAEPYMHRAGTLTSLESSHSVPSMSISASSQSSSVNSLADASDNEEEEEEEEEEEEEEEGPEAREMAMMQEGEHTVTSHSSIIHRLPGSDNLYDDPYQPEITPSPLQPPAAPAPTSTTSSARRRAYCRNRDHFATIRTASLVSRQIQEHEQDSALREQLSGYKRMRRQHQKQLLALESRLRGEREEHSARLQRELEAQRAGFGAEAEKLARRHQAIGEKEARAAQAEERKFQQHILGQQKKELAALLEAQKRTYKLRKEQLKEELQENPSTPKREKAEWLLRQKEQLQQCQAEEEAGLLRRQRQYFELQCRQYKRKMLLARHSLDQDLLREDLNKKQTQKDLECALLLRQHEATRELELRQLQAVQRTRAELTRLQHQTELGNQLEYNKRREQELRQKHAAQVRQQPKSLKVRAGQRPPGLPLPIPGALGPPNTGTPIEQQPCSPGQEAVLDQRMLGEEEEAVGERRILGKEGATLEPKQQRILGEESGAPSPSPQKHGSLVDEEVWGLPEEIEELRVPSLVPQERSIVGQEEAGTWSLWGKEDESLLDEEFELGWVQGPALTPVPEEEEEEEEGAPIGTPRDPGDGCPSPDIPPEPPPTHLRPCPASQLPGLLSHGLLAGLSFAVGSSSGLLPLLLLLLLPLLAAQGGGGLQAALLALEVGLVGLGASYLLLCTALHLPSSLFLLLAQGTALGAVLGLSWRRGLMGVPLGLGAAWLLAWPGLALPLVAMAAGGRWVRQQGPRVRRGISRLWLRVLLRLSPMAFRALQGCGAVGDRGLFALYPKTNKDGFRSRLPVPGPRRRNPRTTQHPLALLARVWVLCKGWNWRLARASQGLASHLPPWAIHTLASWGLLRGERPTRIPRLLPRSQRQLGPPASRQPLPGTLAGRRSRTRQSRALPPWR
Description: ExpresS Diversity Kinase Profile, Cerep (LANCE): TAOK2.

The mark [1] stands for this setting: Flag: Interference, read-out: % Inhibition of control values, 1st measurement.
Setting [2] is: Flag: Interference, read-out: % Inhibition of control values, 2nd measurement.
The mark [3] stands for this setting: n = 2, Flag: Interference, read-out: % Inhibition of control values, Mean.
Setting [4] is: n = 2, read-out: % Inhibition of control values, Mean.
Setting [5] is: read-out: % Inhibition of control values, 1st measurement.
Setting [6] is: read-out: % Inhibition of control values, 2nd measurement.

Read-outs that look alike come from different tables or passages of the source.

Akt1/PKBα, sequence (P31749 whole entry): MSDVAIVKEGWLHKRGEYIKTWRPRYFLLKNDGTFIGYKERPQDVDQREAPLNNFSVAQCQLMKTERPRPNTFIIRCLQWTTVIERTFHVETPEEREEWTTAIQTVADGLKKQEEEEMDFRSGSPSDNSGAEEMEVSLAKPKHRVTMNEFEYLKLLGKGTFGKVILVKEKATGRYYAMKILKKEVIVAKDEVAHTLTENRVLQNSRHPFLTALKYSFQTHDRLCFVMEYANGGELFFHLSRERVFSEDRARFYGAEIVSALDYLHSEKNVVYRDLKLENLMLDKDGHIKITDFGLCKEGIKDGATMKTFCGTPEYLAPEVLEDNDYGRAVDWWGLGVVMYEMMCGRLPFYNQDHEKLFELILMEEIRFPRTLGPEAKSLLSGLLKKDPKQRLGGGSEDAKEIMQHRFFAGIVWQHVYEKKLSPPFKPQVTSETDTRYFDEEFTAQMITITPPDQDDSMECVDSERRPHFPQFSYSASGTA
RAF-1, sequence (P04049 whole entry): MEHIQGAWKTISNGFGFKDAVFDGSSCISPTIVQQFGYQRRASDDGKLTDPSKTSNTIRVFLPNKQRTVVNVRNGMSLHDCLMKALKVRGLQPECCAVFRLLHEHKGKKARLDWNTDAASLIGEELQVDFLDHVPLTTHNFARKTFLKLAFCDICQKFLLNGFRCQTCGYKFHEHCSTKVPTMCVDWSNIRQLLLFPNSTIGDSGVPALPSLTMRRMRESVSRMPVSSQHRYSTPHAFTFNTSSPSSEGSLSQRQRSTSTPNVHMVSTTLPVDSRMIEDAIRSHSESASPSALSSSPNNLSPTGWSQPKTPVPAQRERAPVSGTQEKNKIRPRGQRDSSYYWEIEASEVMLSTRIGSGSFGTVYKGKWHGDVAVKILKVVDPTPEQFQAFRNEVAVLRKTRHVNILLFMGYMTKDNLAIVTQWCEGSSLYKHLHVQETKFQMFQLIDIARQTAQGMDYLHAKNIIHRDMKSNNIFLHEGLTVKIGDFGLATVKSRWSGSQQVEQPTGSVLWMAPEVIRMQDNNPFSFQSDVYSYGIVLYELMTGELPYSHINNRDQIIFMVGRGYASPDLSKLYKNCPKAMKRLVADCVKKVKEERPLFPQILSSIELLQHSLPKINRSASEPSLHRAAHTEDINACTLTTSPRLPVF

As for `CN[C@@H]1C[C@H]2O[C@@](C)([C@@H]1OC)n1c3ccccc3c3c4c(c5c6ccccc6n2c5c31)C(=O)NC4` [Staurosporine, reference compound], the nHill is given as 1.1 on EphB4 (control); 2.4 at RAF-1 (RAF1, control); 1.5 on CHK1 (control); 0.8 at Akt1/PKBα (Akt/PKBα, control); 1.6 on TAOK2 (control).

The inhibition is the relative decrease from the control value, in per cent. Consider `CC1(C)CCC2=C(O1)c1ccccc1C(=O)C2=O` [β-Lapachone], for which the inhibition at 150 µM on EphB4 (setting [1]) was found to be 54.6%; at EphB4 (setting [2]), 55.1%; on EphB4 (setting [3]), 54.8%; on RAF-1 (setting [4]), 57.3%; at RAF-1 (setting [5]) it was 55.4%; on RAF-1 (setting [6]), 59.3%. Besides, the inhibition at 150 µM on CHK1 (setting [1]) was 9.4%; on CHK1 (setting [2]) it was 19.7%; on CHK1 (setting [3]) it was 14.5%; on Akt1/PKBα (setting [5]), 65.8%; at Akt1/PKBα (setting [6]), 55%; at Akt1/PKBα (setting [4]), 60.4%. In addition, the inhibition at 150 µM on TAOK2 (setting [1]) amounted to 32.9%; at TAOK2 (setting [2]), 33.1%; on TAOK2 (setting [3]) it was 33%.
